Measurements: patent publication US20210038587A1, “METHODS AND COMPOSITIONS FOR TREATING NON-ERK MAPK PATHWAY INHIBITOR-RESISTANT CANCERS” (BIOMED VALLEY DISCOVERIES, INC., priority 2013, published 2021)

Tests used:
Test in all cases: Reverse Phase Protein Analysis (RPPA)
Details in all cases: % change from DMSO (matched cell line)
HCT116 = format: cell-based, human
Summary of the method: (§1)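 Cells were treated 6 h before lysis, with 0.1% (v/v) DMSO as control. Lysates were analysed by reverse-phase protein microarray. Protein changes are expressed as percentage change from DMSO-treated parental cells.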

A375 = format: cell-based, human
Summary of the method: as §1

HT29 = format: cell-based
Summary of the method: as §1

AN3Ca = format: cell-based
Summary of the method: as §1

## CC(C)Nc1cc(-c2c[nH]c(C(=O)N[C@H](CO)c3cccc(Cl)c3)c2)c(Cl)cn1 [BVD-523]
HCT116
  Avg (4ebp1 T70): 4.03%
  Avg (Akt S473): −6.14%
  Avg (Akt): 4.41%
  Avg (Bad S136): −11.49%
  Avg (Bad S155): −30.72%
  Avg (Bak): −13.16%
  Avg (Bax): −0.8%
  Avg (Bcl 2): −3.59%
  Avg (Bcl2 S70): −8.23%
  Avg (Bcl 2 T56): −8.36%
  Avg (Bim): 12.44%
  Avg (CREB S133): −30.64%
  Avg (Caspase 3 CL D175): −10.11%
  Avg (Caspase 7 Cl D198): −21.09%
  Avg (Chk1): −11.26%
  Avg (Chk1 S345): −39.65%
  Avg (Cyclin D1): −69.62%
  Avg (ERK 1 2): −29.42%
  Avg (ERK 1 2 T202 Y204): 849.12%
  Avg (MAK1 S360): −13.45%
  Avg (Mcl1): −8.72%
  Avg (Raptor S792): −22.04%
  Avg (Raptor): −7.06%
  Avg (Rictor): −13.05%
  Avg (Stat1): −13.76%
  Avg (Stat3): −5.52%
  Avg (bad S112): −34.27%
  Avg (c Fos): −14.08%
  Avg (c Myc): −11.15%
  Avg (mTOR S2448): −12.78%
  Avg (mTOR S2481): −34.09%
  Avg (mTOR): −11.96%
  Avg (p70 S6 Kinase): −12.86%
  Avg (p90 RSK S380): −31.81%
  Avg(S6 Ribo Prot S235 236): −96.31%
  Avg(S6 Ribo Prot S240 244): −96.26%
  Avg(Tuberin TSC2 Y1571): −29.89%
  Avg(p70 S6 Kinase S371 S394): −16.9%
  Avg(p70 S6 Kinase T389 T412): −28.11%
A375
  Avg (4ebp1 T70): −31.82%
  Avg (Akt S473): 73.07%
  Avg (Akt): −14.03%
  Avg (Bad S136): 12.31%
  Avg (Bad S155): −21.9%
  Avg (Bak): −3.26%
  Avg (Bax): −6.98%
  Avg (Bcl 2): −12.55%
  Avg (Bcl2 S70): −7.91%
  Avg (Bcl 2 T56): −8.54%
  Avg (Bim): 14.57%
  Avg (CREB S133): −12.65%
  Avg (Caspase 3 CL D175): −8.06%
  Avg (Caspase 7 Cl D198): 3.18%
  Avg (Chk1): 16.94%
  Avg (Chk1 S345): −7.43%
  Avg (Cyclin D1): −81.45%
  Avg (ERK 1 2): −22.91%
  Avg (ERK 1 2 T202 Y204): 43.34%
  Avg (MAK1 S360): 3.35%
  Avg (Mcl1): 10.67%
  Avg (Raptor S792): −10.33%
  Avg (Raptor): −7.77%
  Avg (Rictor): −20.11%
  Avg (Stat1): 1.32%
  Avg (Stat3): 6.02%
  Avg (bad S112): −72.37%
  Avg (c Fos): 4.39%
  Avg (c Myc): 2.56%
  Avg (mTOR S2448): −27.87%
  Avg (mTOR S2481): −3.36%
  Avg (mTOR): 0.2%
  Avg (p70 S6 Kinase): −7.6%
  Avg (p90 RSK S380): −71%
  Avg(S6 Ribo Prot S235 236): −95.3%
  Avg(S6 Ribo Prot S240 244): −91.98%
  Avg(Tuberin TSC2 Y1571): −6.32%
  Avg(p70 S6 Kinase S371 S394): −8.58%
  Avg(p70 S6 Kinase T389 T412): −23.79%
HT29
  Avg (4ebp1 T70): −41.47%
  Avg (Akt S473): −3.06%
  Avg (Akt): −13.41%
  Avg (Bad S136): 10.73%
  Avg (Bad S155): −25.9%
  Avg (Bak): −1.42%
  Avg (Bax): 8.39%
  Avg (Bcl 2): 10.68%
  Avg (Bcl2 S70): 2.83%
  Avg (Bcl 2 T56): −8.18%
  Avg (Bim): 2.81%
  Avg (CREB S133): −3.46%
  Avg (Caspase 3 CL D175): −7.03%
  Avg (Caspase 7 Cl D198): −6.93%
  Avg (Chk1): 7.4%
  Avg (Chk1 S345): −13.48%
  Avg (Cyclin D1): −37.21%
  Avg (ERK 1 2): −44.3%
  Avg (ERK 1 2 T202 Y204): 54.82%
  Avg (MAK1 S360): 1.49%
  Avg (Mcl1): −2.83%
  Avg (Raptor S792): −10.48%
  Avg (Raptor): −8.53%
  Avg (Rictor): −18.76%
  Avg (Stat1): 4.74%
  Avg (Stat3): −6.46%
  Avg (bad S112): −20.66%
  Avg (c Fos): −13.48%
  Avg (c Myc): 17.85%
  Avg (mTOR S2448): −20.68%
  Avg (mTOR S2481): −8.64%
  Avg (mTOR): 5.02%
  Avg (p70 S6 Kinase): −10.64%
  Avg (p90 RSK S380): −60.5%
  Avg(S6 Ribo Prot S235 236): −44.68%
  Avg(S6 Ribo Prot S240 244): −25.67%
  Avg(Tuberin TSC2 Y1571): 0.66%
  Avg(p70 S6 Kinase S371 S394): −35.94%
  Avg(p70 S6 Kinase T389 T412): −24.58%
AN3Ca
  Avg (4ebp1 T70): 32.17%
  Avg (Akt S473): 52.11%
  Avg (Akt): −22.43%
  Avg (Bad S136): −1.02%
  Avg (Bad S155): 0.66%
  Avg (Bak): 3.38%
  Avg (Bax): −10.47%
  Avg (Bcl 2): −16.83%
  Avg (Bcl2 S70): −14.81%
  Avg (Bcl 2 T56): −12.85%
  Avg (Bim): −12.57%
  Avg (CREB S133): 1.03%
  Avg (Caspase 3 CL D175): −10.8%
  Avg (Caspase 7 Cl D198): −12.35%
  Avg (Chk1): −8.45%
  Avg (Chk1 S345): −13.34%
  Avg (Cyclin D1): −0.69%
  Avg (ERK 1 2): −9.05%
  Avg (ERK 1 2 T202 Y204): 733.27%
  Avg (MAK1 S360): 0.49%
  Avg (Mcl1): −4.9%
  Avg (Raptor S792): −8.47%
  Avg (Raptor): −13.82%
  Avg (Rictor): −4.52%
  Avg (Stat1): −5.65%
  Avg (Stat3): −4.97%
  Avg (bad S112): −54.1%
  Avg (c Fos): −5.15%
  Avg (c Myc): −0.58%
  Avg (mTOR S2448): −10.79%
  Avg (mTOR S2481): 2.75%
  Avg (mTOR): 5.58%
  Avg (p70 S6 Kinase): −10.27%
  Avg (p90 RSK S380): −28.11%
  Avg(S6 Ribo Prot S235 236): −43.41%
  Avg(S6 Ribo Prot S240 244): −22.2%
  Avg(Tuberin TSC2 Y1571): 2.86%
  Avg(p70 S6 Kinase S371 S394): 32.26%
  Avg(p70 S6 Kinase T389 T412): −14.78%
